What was measured:
[1] = molecular target: T1, APOL1 G2 (Homo sapiens, UniProt O14791, DEL388-389); assay: APOL1 G2 FLIPR calcium influx assay (HEK T-REx/GCaMP6f/APOL1 G2 K6.3 cells); type: cell-based; conditions: HEK293 clone expressing GCaMP6f, doxycycline-induced APOL1 G2; prevention of calcium influx; geometric mean of at least 2 assay runs
T1 construct: expressed in transfected cells; host or cells: HEK293/T-REx APOL1 G2 clone #2, doxycycline-inducible
T1 sequence (O14791 with tags, fused parts or gaps DEL388-389): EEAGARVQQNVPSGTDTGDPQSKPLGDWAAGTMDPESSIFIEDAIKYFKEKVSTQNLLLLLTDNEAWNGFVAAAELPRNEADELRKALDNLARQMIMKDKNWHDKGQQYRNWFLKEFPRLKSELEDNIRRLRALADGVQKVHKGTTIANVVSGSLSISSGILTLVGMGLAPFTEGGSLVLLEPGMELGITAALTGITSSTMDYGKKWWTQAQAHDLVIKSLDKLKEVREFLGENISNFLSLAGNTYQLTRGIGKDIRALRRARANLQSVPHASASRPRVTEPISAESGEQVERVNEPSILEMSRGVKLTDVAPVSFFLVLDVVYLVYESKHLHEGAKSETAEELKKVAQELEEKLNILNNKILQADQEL
Method in brief: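 Cells express GCaMP6f stably and APOL1 G2 after a 6 h doxycycline induction. Duplicate 8-point dilutions sit 10 min at room temperature in Ca2+-free Tyrode's (pH 7.4), then Ca2+ is injected to 5 mM final and the FLIPR signal recorded. AC50s are geometric means across ≥2 days.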

[2] = molecular target: T1, APOL1 G2; assay: APOL1 G2 HEK293 rescue of cell death caused by overexpression of APOL1 (CellTiter-Glo); type: cell-based; conditions: HEK293/T-REx APOL1 G2 clone #2, doxycycline induction, 17 hours, CellTiter-Glo luminescence; reversal of cell death; geometric mean of at least 2 assay runs
Method in brief: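 Viability read by CellTiter-Glo luminescence after 17 h, 37 °C, in HEK293/T-REx cells expressing APOL1 G2 on 6 ng/mL doxycycline, 5,000 cells/well. Compounds tested as duplicate 8-point, 3-fold dilutions, 0.5% DMSO final; four-parameter logistic EC50, usually geometric mean of ≥2 days.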

AC50 [1] [µM]	SMILES	EC50 [2] [µM]
0.47	C[C@@H]1CN(C(CO)Cc2cccc(Cl)c2)C[C@H]1COc1ccc(S(C)(=O)=O)cc1 (stereo partly drawn) [Compound 115, 3-(3-chlorophenyl)-2-[(3S,4S)-3-[(4-methanesulfonylphenoxy)methyl]-4-methylpyrrolidin-1-yl]propan-1-ol]	1.83
0.48	C[C@@H]1CN(C(CO)Cc2cc(Cl)cc(C#N)c2)C[C@H]1COc1ccc(S(C)(=O)=O)cc1 (stereo partly drawn) [Compound 120, 3-chloro-5-[3-hydroxy-2-[(3S,4S)-3-[(4-methanesulfonylphenoxy)methyl]-4-methylpyrrolidin-1-yl]propyl]benzonitrile]	1.04
1.74	C[C@@H]1CN(CC(CO)c2cc(Cl)cc(C#N)c2)C[C@H]1COc1ccc(S(C)(=O)=O)cc1 (stereo partly drawn) [Compound 126, 3-chloro-5-(1-hydroxy-3-((3S,4S)-3-methyl-4-((4-(methylsulfonyl)phenoxy)methyl)pyrrolidin-1-yl)propan-2-yl)benzonitrile]	2.76
< 0.229	CS(=O)(=O)c1ccc(OC[C@@H]2CCCN(C3CCc4ccc(Cl)cc4C3)C2)cc1 (stereo partly drawn) [Compound 131, (3R)-1-(7-chloro-1,2,3,4-tetrahydronaphthalen-2-yl)-3-[(4-methanesulfonylphenoxy)methyl]piperidine]	0.994
0.379	CC(c1ccc(OC[C@@H]2CN(CCc3cccc(Cl)c3)CCN2)cc1)S(C)(=O)=O (stereo partly drawn) [Compound 140, (3S)-1-[2-(3-chlorophenyl)ethyl]-3-{[4-(1-methanesulfonylethyl)phenoxy]methyl}piperazine]	0.756
0.936	C[C@H]1C[C@H](COc2ccc(S(C)(=O)=O)cc2)CN1CCc1cccc(Cl)c1 [Compound 143, (2S,4S)-1-[2-(3-chlorophenyl)ethyl]-4-[(4-methanesulfonylphenoxy)methyl]-2-methylpyrrolidine]	1.2
1.13	C[C@@H]1C[C@@H](COc2ccc(S(C)(=O)=O)cc2)CN1CCc1cccc(Cl)c1 [Compound 145, (2R,4R)-1-[2-(3-chlorophenyl)ethyl]-4-[(4-methanesulfonylphenoxy)methyl]-2-methylpyrrolidine]	1.77
